The text below walks through data of PMC9963675 (Proceedings of the National Academy of Sciences of the …, 2023).

One assay deals with WT C57Bl6/N mice. The assay can be described thus: open field locomotor activity time-course in mice. The assay is classed as in vivo. The following applies: for duration of locomotor / psychomotor effects: open field time-course, i.p.; for potency, cumulative distance traveled over 60 min post i.p. injection: compared with MPH, cocaine, R-αPVP, R-MDPV and R-pyrovalerone.
Assay [1] addresses T1, DAT (Homo sapiens, UniProt Q01959). The assay can be described thus: saturation of [3H]DA uptake in presence of inhibitor. The assay is classed as cell-based. The following applies: 1 min uptake; cocaine and R-αPVP 250, 500, 1,000 nM; S-αPVP 5, 10, 20 nM.
For assay [2], the target named is T1, DAT. In kind it is binding. The following applies: DAT membranes.
In assay [3] the target is T1, DAT. The assay can be described thus: electrophysiological examination of DAT-mediated currents. The assay is classed as cell-based. The following applies: HEK293 cells expressing DAT, whole-cell.

T1 sequence (Q01959 whole entry): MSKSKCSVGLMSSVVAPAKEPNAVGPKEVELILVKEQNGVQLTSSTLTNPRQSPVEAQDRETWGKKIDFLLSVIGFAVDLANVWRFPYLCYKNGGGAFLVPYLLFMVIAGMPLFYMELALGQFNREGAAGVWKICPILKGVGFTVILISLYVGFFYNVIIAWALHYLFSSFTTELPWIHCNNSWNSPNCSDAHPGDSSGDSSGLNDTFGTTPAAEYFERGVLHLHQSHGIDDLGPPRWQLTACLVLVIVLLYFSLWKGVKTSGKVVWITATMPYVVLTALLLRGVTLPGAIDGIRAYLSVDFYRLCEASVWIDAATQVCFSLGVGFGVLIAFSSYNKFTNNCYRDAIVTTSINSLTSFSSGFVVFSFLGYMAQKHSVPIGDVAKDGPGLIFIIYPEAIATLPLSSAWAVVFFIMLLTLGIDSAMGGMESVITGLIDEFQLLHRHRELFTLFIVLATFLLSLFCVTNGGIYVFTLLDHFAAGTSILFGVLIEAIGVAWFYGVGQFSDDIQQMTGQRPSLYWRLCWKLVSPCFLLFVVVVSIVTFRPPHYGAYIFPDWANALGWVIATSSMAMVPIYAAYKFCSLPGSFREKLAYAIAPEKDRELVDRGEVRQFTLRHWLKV

`CCC[C@H](C(=O)c1ccc(C)cc1)N1CCCC1` [R-pyrovalerone, pyrovalerone]: the “duration of locomotor / psychomotor effects” value with WT C57Bl6/N mice was “much shorter duration of locomotor effects”.
As for `CCCC(C(=O)c1ccc2c(c1)OCO2)N1CCCC1` (stereo not drawn) [S-MDPV, 3,4-methylenedioxypyrovalerone], in the assay on WT C57Bl6/N mice, the “potency, cumulative distance traveled over 60 min post i.p. injection” value is recorded as “at least tenfold more potent” and the “duration of locomotor / psychomotor effects” value was “prolonged psychomotor effects”.
Take `CCC[C@@H](C(=O)c1ccc(C)cc1)N1CCCC1` [S-pyrovalerone, pyrovalerone]: in the assay on WT C57Bl6/N mice, the “potency, cumulative distance traveled over 60 min post i.p. injection” value is listed as “at least tenfold more potent” and the “duration of locomotor / psychomotor effects” value is “prolonged psychomotor effects”.
With `COC(=O)[C@H]1[C@@H](OC(=O)c2ccccc2)C[C@@H]2CC[C@H]1N2C` [cocaine], the “duration of locomotor / psychomotor effects” value in the assay on WT C57Bl6/N mice is “much shorter duration of locomotor effects”. In addition, at DAT [1], the “effect on Km of DA uptake” value was “increases Km in dose-dependent manner” and the “effect on Vmax of DA uptake” value is on record as “does not decrease Vmax”. Besides, the “effect on dissociation rate of [3H]WIN35428” value at DAT [2] is recorded as “not affected”.
`NCCc1ccc(O)c(O)c1` [dopamine]: on DAT [3], the “DAT-mediated inward currents (substrate activity)” value was “robust inward currents”.
`COC(=O)C(c1ccccc1)C1CCCCN1` (stereo not drawn) [MPH, methylphenidate]: in the assay with WT C57Bl6/N mice, the “duration of locomotor / psychomotor effects” value is recorded as “much shorter duration of locomotor effects”.
Turning to `CCCC(C(=O)c1ccc2c(c1)OCO2)N1CCCC1` (stereo not drawn) [R-MDPV, 3,4-methylenedioxypyrovalerone], the “duration of locomotor / psychomotor effects” value with WT C57Bl6/N mice is recorded as “much shorter duration of locomotor effects”.
